# PubChem BioAssay AID248 (DTP/NCI, 2004)
# Where “and” joins values, the source holds several entries; their conditions need not be identical. Equal entries are not always repeated. Toxic doses and inconclusive results are not listed.
# Tested on: L1210 leukemia ip in BDF1 mice, survival T/C
# Experiment: NCI In Vivo Anticancer Drug Screen. Data for tumor model L1210 Leukemia (intraperitoneal) in B6D2F1 (BDF1) mice
# Conditions: endpoint: mean survival time, higher = longer survival
# Procedure, shortened: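 Survival endpoint. Drug-treated group vs vehicle group, expressed as T divided by C. Tumor passaged by transplantation.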
# [1] = dose: 100.0 mg/kg/injection, schedule: Q04DX003 (ip), vehicle: saline
# [2] = dose: 200.0 mg/kg/injection, schedule: Q04DX003 (ip), vehicle: saline
# [3] = dose: 400.0 mg/kg/injection, schedule: Q04DX003 (ip), vehicle: saline
# [4] = dose: 100.0 mg/kg/injection, schedule: Q01DX001 (ip), vehicle: saline
# [5] = dose: 200.0 mg/kg/injection, schedule: Q01DX001 (ip), vehicle: saline
# [6] = dose: 75.0 mg/kg/injection, schedule: Q01DX001 (ip), vehicle: other
# [7] = dose: 150.0 mg/kg/injection, schedule: Q01DX001 (ip), vehicle: other
# [8] = dose: 300.0 mg/kg/injection, schedule: Q01DX001 (ip), vehicle: other
# [9] = dose: 100.0 mg/kg/injection, schedule: Q01DX001 (ip), vehicle: carboxymethylcellulose (CMC)
# [10] = dose: 200.0 mg/kg/injection, schedule: Q01DX001 (ip), vehicle: carboxymethylcellulose (CMC)
# [11] = dose: 400.0 mg/kg/injection, schedule: Q01DX001 (ip), vehicle: carboxymethylcellulose (CMC)
# [12] = dose: 50.0 mg/kg/injection, schedule: Q01DX009 (ip), vehicle: saline
# [13] = dose: 50.0 mg/kg/injection, schedule: Q04DX003 (ip), vehicle: saline
compound,measurement,setting,value
C/C(CC(C)C)=N\NC(=O)Nc1ccc(Cl)c(Cl)c1,T/C,"dose: 100.0 mg/kg/injection, schedule: Q01DX009 (ip), vehicle: saline with Tween-80",100 % of control and 112 % of control
same,T/C,"dose: 100.0 mg/kg/injection, schedule: Q04DX002 (ip), vehicle: saline",94 % of control and 106 % of control
same,T/C,[1],92 % of control
same,T/C,"dose: 200.0 mg/kg/injection, schedule: Q01DX009 (ip), vehicle: saline with Tween-80",101 % of control and 112 % of control
same,T/C,"dose: 200.0 mg/kg/injection, schedule: Q04DX002 (ip), vehicle: saline",93 % of control and 105 % of control
same,T/C,[2],95 % of control
same,T/C,"dose: 400.0 mg/kg/injection, schedule: Q01DX009 (ip), vehicle: saline with Tween-80",101 % of control and 106 % of control
same,T/C,"dose: 400.0 mg/kg/injection, schedule: Q04DX002 (ip), vehicle: saline",95 % of control and 105 % of control
same,T/C,[3],113 % of control
Nc1nc2ccccc2n1C1OC(CO)C(O)C1O (stereo not drawn),T/C,[4],101 % of control
same,T/C,[5],95 % of control
same,T/C,"dose: 400.0 mg/kg/injection, schedule: Q01DX001 (ip), vehicle: saline",104 % of control
Nc1nccnc1Nc1ccccc1,T/C,[6],100 % of control
same,T/C,[7],100 % of control
same,T/C,[8],100 % of control
c1ccc(CCN(c2ccccc2)c2ccccc2)cc1,T/C,[9],100 % of control
same,T/C,[10],103 % of control
same,T/C,[11],103 % of control
CC(C)C1(C(C)C)OCC(CO)O1 (stereo not drawn),T/C,"dose: 25.0 mg/kg/injection, schedule: Q01DX009 (ip), vehicle: saline",93 % of control
same,T/C,"dose: 25.0 mg/kg/injection, schedule: Q04DX003 (ip), vehicle: saline",100 % of control
same,T/C,[12],102 % of control
same,T/C,[13],94 % of control
same,T/C,"dose: 100.0 mg/kg/injection, schedule: Q01DX009 (ip), vehicle: saline",104 % of control
same,T/C,[1],94 % of control
same,T/C,"dose: 200.0 mg/kg/injection, schedule: Q01DX009 (ip), vehicle: saline",102 % of control
same,T/C,[2],102 % of control
same,T/C,"dose: 400.0 mg/kg/injection, schedule: Q01DX009 (ip), vehicle: saline",104 % of control
same,T/C,[3],100 % of control
N#C/C=C/C1=CCCCC1,T/C,[1],101 % of control
same,T/C,[2],97 % of control
same,T/C,[3],93 % of control
FC(F)(F)c1ccc2c(c1)N(CCCN1CCN(CCOc3ccccc3)CC1)c1ccccc1S2,T/C,"dose: 6.25 mg/kg/injection, schedule: Q04DX003 (ip), vehicle: saline",105 % of control
same,T/C,"dose: 8.2 mg/kg/injection, schedule: Q04DX003 (ip), vehicle: saline",97 % of control and 98 % of control
same,T/C,"dose: 12.5 mg/kg/injection, schedule: Q04DX003 (ip), vehicle: saline",104 % of control
same,T/C,"dose: 18.0 mg/kg/injection, schedule: Q04DX003 (ip), vehicle: saline",101 % of control and 102 % of control
C#CCCCCCCCCC(=O)NCC,T/C,"dose: 100.0 mg/kg/injection, schedule: Q01DX009 (ip), vehicle: Klucel (hydroxypropylcellulose) (HPC)",100 % of control
same,T/C,"dose: 100.0 mg/kg/injection, schedule: Q04DX003 (ip), vehicle: Klucel (hydroxypropylcellulose) (HPC)",95 % of control
same,T/C,"dose: 200.0 mg/kg/injection, schedule: Q04DX003 (ip), vehicle: Klucel (hydroxypropylcellulose) (HPC)",93 % of control
same,T/C,"dose: 400.0 mg/kg/injection, schedule: Q01DX009 (ip), vehicle: Klucel (hydroxypropylcellulose) (HPC)",104 % of control
same,T/C,"dose: 400.0 mg/kg/injection, schedule: Q04DX003 (ip), vehicle: Klucel (hydroxypropylcellulose) (HPC)",108 % of control
O=[As](O)(c1cccc(Cl)c1)C1CCCCC1O (stereo not drawn),T/C,"dose: 25.0 mg/kg/injection, schedule: Q04DX003 (ip), vehicle: saline with Tween-80",91 % of control
same,T/C,"dose: 50.0 mg/kg/injection, schedule: Q04DX003 (ip), vehicle: saline with Tween-80",89 % of control
C1OC1CN1CCN(CC2CO2)CC1 (stereo not drawn),T/C,"dose: 1.2 mg/kg/injection, schedule: Q01DX009 (ip), vehicle: saline",101 % of control
same,T/C,"dose: 1.8 mg/kg/injection, schedule: Q01DX009 (ip), vehicle: saline",117 % of control
same,T/C,"dose: 2.0 mg/kg/injection, schedule: Q03HX008 (ip), vehicle: saline",117 % of control
same,T/C,"dose: 2.0 mg/kg/injection, schedule: Q03HX016 (ip), vehicle: saline",102 % of control
same,T/C,"dose: 2.0 mg/kg/injection, schedule: Q03HX024 (ip), vehicle: saline",121 % of control
same,T/C,"dose: 3.5 mg/kg/injection, schedule: Q01DX009 (ip), vehicle: saline",118 % of control
same,T/C,"dose: 4.0 mg/kg/injection, schedule: Q03HX008 (ip), vehicle: saline",114 % of control
same,T/C,"dose: 4.0 mg/kg/injection, schedule: Q03HX016 (ip), vehicle: saline",114 % of control
same,T/C,"dose: 6.25 mg/kg/injection, schedule: Q01DX009 (ip), vehicle: saline",121 % of control
same,T/C,"dose: 8.0 mg/kg/injection, schedule: Q01DX009 (sc), vehicle: saline",101 % of control
same,T/C,"dose: 8.0 mg/kg/injection, schedule: Q03HX008 (ip), vehicle: saline",114 % of control
same,T/C,"dose: 8.0 mg/kg/injection, schedule: Q03HX016 (ip), vehicle: saline",94 % of control
same,T/C,"dose: 12.5 mg/kg/injection, schedule: Q01DX009 (ip), vehicle: saline",164 % of control
same,T/C,"dose: 15.0 mg/kg/injection, schedule: Q01DX009 (ip), vehicle: saline",157 % of control
same,T/C,"dose: 16.0 mg/kg/injection, schedule: Q01DX001 (sc), vehicle: saline",106 % of control
same,T/C,"dose: 16.0 mg/kg/injection, schedule: Q01DX009 (sc), vehicle: saline",106 % of control
same,T/C,"dose: 30.0 mg/kg/injection, schedule: Q01DX009 (ip), vehicle: saline",208 % of control
same,T/C,"dose: 32.0 mg/kg/injection, schedule: Q01DX001 (oral), vehicle: saline",113 % of control
same,T/C,"dose: 32.0 mg/kg/injection, schedule: Q01DX001 (sc), vehicle: saline",98 % of control
same,T/C,"dose: 32.0 mg/kg/injection, schedule: Q01DX009 (ip), vehicle: saline",102 % of control
same,T/C,"dose: 32.0 mg/kg/injection, schedule: Q01DX009 (oral), vehicle: saline",153 % of control
same,T/C,"dose: 32.0 mg/kg/injection, schedule: Q04DX003 (ip), vehicle: saline",165 % of control
same,T/C,[12],111 % of control
same,T/C,"dose: 60.0 mg/kg/injection, schedule: Q01DX009 (ip), vehicle: saline",92 % of control
same,T/C,"dose: 64.0 mg/kg/injection, schedule: Q01DX001 (oral), vehicle: saline",123 % of control
same,T/C,"dose: 64.0 mg/kg/injection, schedule: Q01DX001 (sc), vehicle: saline",113 % of control
same,T/C,"dose: 64.0 mg/kg/injection, schedule: Q01DX009 (oral), vehicle: saline",165 % of control
same,T/C,"dose: 64.0 mg/kg/injection, schedule: Q01DX009 (sc), vehicle: saline",160 % of control
same,T/C,[4],176 % of control
same,T/C,"dose: 120.0 mg/kg/injection, schedule: Q01DX001 (ip), vehicle: saline",182 % of control
same,T/C,"dose: 128.0 mg/kg/injection, schedule: Q01DX001 (sc), vehicle: saline",116 % of control
same,T/C,"dose: 180.0 mg/kg/injection, schedule: Q01DX001 (ip), vehicle: saline",168 % of control
same,T/C,[5],90 % of control
same,T/C,"dose: 256.0 mg/kg/injection, schedule: Q01DX001 (sc), vehicle: saline",151 % of control
Cc1cc[n+](CCc2ccccc2)cc1,T/C,"dose: 12.5 mg/kg/injection, schedule: Q01DX009 (ip), vehicle: carboxymethylcellulose (CMC)",97 % of control
same,T/C,"dose: 25.0 mg/kg/injection, schedule: Q01DX009 (ip), vehicle: carboxymethylcellulose (CMC)",97 % of control
same,T/C,"dose: 50.0 mg/kg/injection, schedule: Q01DX009 (ip), vehicle: carboxymethylcellulose (CMC)",105 % of control
same,T/C,[13],100 % of control
same,T/C,"dose: 75.0 mg/kg/injection, schedule: Q01DX001 (ip), vehicle: carboxymethylcellulose (CMC)",108 % of control
same,T/C,[6],104 % of control
same,T/C,[1],92 % of control and 100 % of control
same,T/C,"dose: 150.0 mg/kg/injection, schedule: Q01DX001 (ip), vehicle: carboxymethylcellulose (CMC)",115 % of control
same,T/C,[7],104 % of control
same,T/C,[8],105 % of control
CCCCC(O)(CCCC)CC(C)(C)C,T/C,[9],103 % of control
same,T/C,[10],92 % of control
same,T/C,[11],92 % of control
CCOP(=O)(OCC)O/N=C(/C)c1cccc([N+](=O)[O-])c1,T/C,"dose: 5.0 mg/kg/injection, schedule: Q01DX001 (ip), vehicle: saline",100 % of control
same,T/C,"dose: 10.0 mg/kg/injection, schedule: Q01DX001 (ip), vehicle: saline",97 % of control
CSc1nc(Cl)cc2c1ncn2C1OC(CO)C(O)C1O (stereo not drawn),T/C,"dose: 100.0 mg/kg/injection, schedule: Q01DX005 (ip), vehicle: saline",100 % of control
same,T/C,"dose: 200.0 mg/kg/injection, schedule: Q01DX005 (ip), vehicle: saline",100 % of control
